The values that follow are results of earlier work, collected in PMC6282790, “Incorporating physiologically relevant mobile phases in micellar liquid chromatography for the prediction of human intestinal absorption” (Biomedical Chromatography, 2018).

Like-named read-outs stand apart in the source and are kept apart here.

Details of data set [1]: method as in https://pubchem.ncbi.nlm.nih.gov/, December 2014; unit not given beside the values. To be noted: literature values; ref https://pubchem.ncbi.nlm.nih.gov/, December 2014.
For data set [2] the following is noted: human intestinal absorption.
For data set [3] the following is noted: in 0.15 M NaCl.
Where [4] appears, read: ref Castillo‐Garit et al. (2014).

In the case of `CC(=O)Nc1ccc(O)cc1` [Acetaminophen, acetaminophen], the PSA in data set [1] was 49.3. The “Experimental. %HIA” value in data set [2] (setting [4]) is recorded as 100%.

Take `CC(=O)Oc1ccccc1C(=O)O` [Acetylsalicylic acid, acetyl salicylic acid]: in data set [1], the PSA was 63.6. For the same compound, the “Experimental. %HIA” value in data set [2] (setting [4]) is reported as 82%.

Take `NC(=O)N1c2ccccc2C=Cc2ccccc21` [Carbamazepine, carbamazepine]: in data set [1], the PSA is listed as 46.3. For the same compound, the “Experimental. %HIA” value in data set [2] (ref Dressman, Amidon, & Fleisher (1985), Varma, Sateesh, & Panchagnula (2005)) is listed as 84%.

For the compound `CN/C(=N/CCSCc1nc[nH]c1C)NC#N` [Cimetidine, cimetidine], the PSA in data set [1] is on record as 88.89. For the same compound, the “Experimental. %HIA” value in data set [2] (ref Castillo‐Garit et al. (2014), Linnankoski, Mäkelä, Ranta, Urtti, & Yliperttula (2006)) was 68%.

Take `O=C(O)Cc1ccccc1Nc1c(Cl)cccc1Cl` [Diclofenac, diclofenac]: the “Experimental. %HIA” value in data set [2] (ref Veber et al. (2002)) is listed as 54%.

Take `CC(C(=O)O)c1cccc(Oc2ccccc2)c1` (stereo not shown) [Fenoprofen, fenoprofen]: the PSA in data set [1] was 46.5. Moreover, the “Experimental. %HIA” value in data set [2] (ref Hou, Wang, Zhang, & Xu (2007)) was 85%.

Turning to `OC(Cn1cncn1)(Cn1cncn1)c1ccc(F)cc1F` [Fluconazole, fluconazole], the PSA in data set [1] is 81.6.

`CC(C(=O)O)c1ccc(-c2ccccc2)c(F)c1` (stereo not shown) [Flurbiprofen, flurbiprofen]: the PSA in data set [1] is recorded as 37.3. Besides, in data set [2] (ref Raevsky (2004)), the “Experimental. %HIA” value was 92%.

Take `CC(C)Cc1ccc(C(C)C(=O)O)cc1` (stereo not shown) [Ibuprofen, ibuprofen]: the PSA in data set [1] is 37.3. Besides, the “Experimental. %HIA” value in data set [2] (ref Newby et al. (2015)) is 98%.

Turning to `CC(C(=O)O)c1cccc(C(=O)c2ccccc2)c1` (stereo not shown) [Ketoprofen, ketoprofen], the PSA in data set [1] is on record as 54.4.

`C[C@H](CCC(=O)[O-])[C@H]1CC[C@H]2[C@@H]3[C@H](O)C[C@@H]4C[C@H](O)CC[C@]4(C)[C@H]3C[C@H](O)[C@]12C.[Na+]` [NaC, sodium cholate]: in data set [3] (ref Reis et al., 2004), the CMC was 7.5 mM.

Take `C[C@H](CCC(=O)NCC(=O)[O-])[C@H]1CC[C@H]2[C@@H]3[C@H](O)C[C@@H]4C[C@H](O)CC[C@]4(C)[C@H]3C[C@H](O)[C@]12C.[Na+]` [NaGC, sodium glycocholate]: in data set [3] (ref Natalini et al., 2014), the CMC was 9 mM.

In the case of `C[C@H](CCC(=O)NCC(=O)[O-])[C@H]1CC[C@H]2[C@@H]3CC[C@@H]4C[C@H](O)CC[C@]4(C)[C@H]3C[C@H](O)[C@]12C.[Na+]` [NaGDC, sodium glycodeoxycholate], the CMC in data set [3] (ref Natalini et al., 2014) is 2.2 mM.

As to `C[C@H](CCC(=O)NCCS(=O)(=O)O)[C@H]1CC[C@H]2[C@@H]3[C@H](O)C[C@@H]4C[C@H](O)CC[C@]4(C)[C@H]3C[C@H](O)[C@]12C` [NaTC, sodium taurocholate], the CMC in data set [3] (ref Natalini et al., 2014) is 4 mM.

As for `C[C@H](CCC(=O)NCCS(=O)(=O)[O-])[C@H]1CC[C@H]2[C@@H]3CC[C@@H]4C[C@H](O)CC[C@]4(C)[C@H]3C[C@H](O)[C@]12C.[Na+]` [NaTDC, sodium taurodeoxycholate], the CMC in data set [3] (ref Natalini et al., 2014) is 2.4 mM.

Take `COc1ccc2cc([C@H](C)C(=O)O)ccc2c1` [Naproxen, naproxen]: the “Experimental. %HIA” value in data set [2] (setting [4]) was 94%.

With `O=C(O)c1cccnc1` [Nicotinic acid, nicotinic acid], the “Experimental. %HIA” value in data set [2] (ref Newby et al. (2015)) is 94%.

As to `CCCCC1C(=O)N(c2ccccc2)N(c2ccccc2)C1=O` [Phenylbutazone, phenylbutazone], the PSA in data set [1] is 40.6. In addition, the “Experimental. %HIA” value in data set [2] (ref Hou et al. (2007), Veber et al. (2002)) is 94%.

As for `O=C(O)c1ccccc1O` [Salicylic acid, salicylic acid], the PSA in data set [1] is reported as 57.5. The “Experimental. %HIA” value in data set [2] (ref Raevsky (2004)) is 99%.

Turning to `CC(C)(C)NCC(O)c1cc(O)cc(O)c1` (stereo not shown) [Terbutaline, terbutaline], in data set [1], the PSA is 72.7. In data set [2] (ref Grès et al. (1998)), the “Experimental. %HIA” value was 25%.

`Cn1c(=O)c2[nH]cnc2n(C)c1=O` [Theophylline, theophylline]: the PSA in data set [1] is reported as 69.3. Also, the “Experimental. %HIA” value in data set [2] (ref Kansy, Senner, & Gubernator (1998)) is 98%.

`CN(C)CCc1c[nH]c2ccc(C[C@H]3COC(=O)N3)cc12` [Zolmitriptan, zolmitriptan]: the PSA in data set [1] was 57.4. In addition, the “Experimental. %HIA” value in data set [2] (ref Newby et al. (2015)) is 92%.
